One may read the inhibition as the change of the read-out against control, counted positive when it falls.

Experiment [1] relates to arachidonic acid-induced ear oedema. The experiment is described as follows: Mouse ear oedema model (arachidonic acid-induced acute inflammation). It counts as in vivo, Laca mice. As to conditions: 300 μg per ear topical in acetone, 30 min before arachidonic acid, 1 hour after arachidonic acid. The procedure: Mouse Ear Oedema Model The mouse ear oedema model was performed using Laca mice (25-35 g), of either sex. The animals were sedated with fentanyl/fluanisone (Hypnorn, Janssen). One ear was treated by the topical application of one of a range of test compounds or dexamethasone (all at 300 μg per ear in acetone). After 30 minutes, oedema was induced by the topical application of arachidonic acid (10 μl at 0.4 g/ml in acetone). The width of each ear was measured, both before and 60 minutes after the induction of oedema, using a micrometer screw gauge. Ear oedema was calculated by comparing the ear width before and after induction of oedema and expressed as percentage normal. Values are expressed as the percentage increase in ear thickness 1 hour after administration of archidonic acid and solvent controls (n=6 except Compound IV, n=4). Acute Inflammation—Mouse Ear

Another experiment relates to mast cells. The experiment in a line: Histamine release assay (mast cell stabilisation, compound 48/80-induced histamine release). It counts as cell-based, Female Wistar rats. As to conditions: rat peritoneal mast cells, 2×10^−5 M test compound, stimulated with Compound 48/80, n=5, read-out: % inhibition of histamine Release (±S.E.M.). The method, then:
The compounds were assessed for their ability to stabilise mast cell membranes in vitro. Mast cells treated with the compounds and untreated mast cells were stimulated to release histamine. A reduction in histamine release by the treated cells compared to the untreated cells indicates stabilisation of the membranes.
The buffered salt solution (BSS) was prepared in advance (NaCl 137 mM; KCl 2.7 mM; MgCl2 1.0 mM; CaCl2 0.5 mM; NaH2PO4 0.4 mM; Glucose 5.6 mM; HEPES 10 mM). This was dispensed into test tubes and heated to 37° C. each test tube contained 4.5 ml BSS. The solvent blank was supplemented with 0.5% (v/v) dimethyl sulphoxide (DMSO) or 0.5% (v/v) distilled water (dH2O). […]
To 2 ml of supernatent from each tube was added 0.4 ml of 1 M NaOH and 0.1 ml oPT (1% (w/v) in methanol). […] The presence of the fluorescent product of the reaction was measured using a Shimadzu RF-1501 spectrofluorophotometer set at λex=360 nm, λem=450 nm.
Each drug was tested on at least five animals (n=5). The results were expressed as a percentage of maximum inhibition of compound 48/80 induced-histamine release in the solvent blank sample. […] The basal histamine release in untreated cells was noted, expressed as a percentage of the total histamine content of the cells in suspension.

Setting [2] is: first set, solvent control 69.0.
[3] abbreviates: second set, solvent control 79.6.

Structures are written as SMILES.

In the case of `O=C(CC1(C2=Cc3ccccc3C2)Cc2ccccc2C1=O)c1ccccc1` (stereo not shown) [Compound I, 1-phenyl-2-((2′-iidenyl)-indan-2-onyl)ethan-1-one], the “Mean % (percentage increase in ear thickness)” value in experiment [1] (setting [2]) was 49.3%.
Consider `OC(CC1(C2=Cc3ccccc3C2)Cc2ccccc2C1O)c1ccccc1` (stereo not shown) [Compound II, 1-phenyl-2-((2′-iindenyl)-indan-2-ol)ethan-1-ol], for which the “Mean % (percentage increase in ear thickness)” value in experiment [1] (setting [3]) amounted to 17.7%. Also, the inhibition at 20 µM in the experiment on mast cells was 53.5 ± 2.53%.
Take `O=C(CC1(C2=Cc3ccccc3C2)Cc2ccccc2C1O)c1ccccc1` (stereo not shown) [Compound III, 1-phenyl-2-((2′-iidenyl)-indan-2-ol)ethan-1-one]: the “Mean % (percentage increase in ear thickness)” value in experiment [1] (setting [3]) was 37.3%.
With `O=C1c2ccccc2CC1(CC(O)c1ccccc1)C1=Cc2ccccc2C1` (stereo not shown) [Compound IV, 1-phenyl-2-((2′-iidenyl)-indan-2-one)ethan-1-ol], in experiment [1] (setting [3]), the “Mean % (percentage increase in ear thickness)” value amounted to 13.1%.
As for `C[C@@H]1C[C@H]2[C@@H]3CCC4=CC(=O)C=C[C@]4(C)[C@@]3(F)[C@@H](O)C[C@]2(C)[C@@]1(O)C(=O)CO` [Dexamethasone, reference compound], the “Mean % (percentage increase in ear thickness)” value in experiment [1] (setting [2]) is given as 41.6%; in experiment [1] (setting [3]), 54.0%.

The values above are taken from patent publication US6433021B1, “Indane compounds and their pharmaceutical use” (Venantius Limited, priority 1999, dated 2002).
